According to ChEMBL document CHEMBL1909046, “DrugMatrix in vitro pharmacology data”:

Columns and labels:
[1] = target: Sodium-dependent noradrenaline transporter (Homo sapiens, UniProt P23975); test: DRUGMATRIX: Norepinephrine Transporter radioligand binding (ligand: [125I] RTI-55); assay type: cell membranes, MDCK, Membrane; settings: mdck; Not Active = under 50% inhibition at 10 µM
[2] = target: T1, 5-hydroxytryptamine receptor 2C (Homo sapiens, UniProt P28335); test: DRUGMATRIX: Serotonin (5-Hydroxytryptamine) 5-HT2C radioligand binding (ligand: [3H] Mesulergine); assay type: cell membranes, CHO-K1, Membrane; settings: Not Active = under 50% inhibition at 10 µM
T1 sequence (P28335 whole entry): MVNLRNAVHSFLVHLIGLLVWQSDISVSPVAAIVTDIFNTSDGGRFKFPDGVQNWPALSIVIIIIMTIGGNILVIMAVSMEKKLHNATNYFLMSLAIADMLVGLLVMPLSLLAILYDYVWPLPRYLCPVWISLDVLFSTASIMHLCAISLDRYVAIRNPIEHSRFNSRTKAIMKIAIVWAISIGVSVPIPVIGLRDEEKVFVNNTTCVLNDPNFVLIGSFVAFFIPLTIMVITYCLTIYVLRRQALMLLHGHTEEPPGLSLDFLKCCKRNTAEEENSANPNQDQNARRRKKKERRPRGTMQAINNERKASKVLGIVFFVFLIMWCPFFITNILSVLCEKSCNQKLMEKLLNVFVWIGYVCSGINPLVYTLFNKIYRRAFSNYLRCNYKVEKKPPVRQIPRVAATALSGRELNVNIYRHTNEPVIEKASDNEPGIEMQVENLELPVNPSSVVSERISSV

Substance-K receptor = target: T2, Substance-K receptor (Homo sapiens, UniProt P21452); assay type: cell membranes, CHO, Membrane; settings: cho; also: in other assays of this panel Not Active means under 50% inhibition at 10 µM
T2 sequence (P21452 whole entry): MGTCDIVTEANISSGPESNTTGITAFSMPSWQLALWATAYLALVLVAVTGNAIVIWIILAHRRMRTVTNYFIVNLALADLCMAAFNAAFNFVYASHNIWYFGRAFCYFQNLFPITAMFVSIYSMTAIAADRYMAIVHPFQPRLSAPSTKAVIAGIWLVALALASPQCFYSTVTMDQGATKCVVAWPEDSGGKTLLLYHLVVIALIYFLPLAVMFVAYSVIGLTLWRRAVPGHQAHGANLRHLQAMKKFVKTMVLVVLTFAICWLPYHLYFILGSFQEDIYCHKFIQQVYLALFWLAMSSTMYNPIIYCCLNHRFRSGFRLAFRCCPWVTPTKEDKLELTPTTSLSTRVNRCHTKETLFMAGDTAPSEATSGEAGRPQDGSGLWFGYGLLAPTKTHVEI

[3] = DRUGMATRIX: GABAA, Muscimol, Central radioligand binding (ligand: [3H] Muscimol); assay type: cell membranes, Rattus norvegicus, Wistar, Brain, Membrane; settings: Not Active = under 50% inhibition at 10 µM
Melanocortin receptor 3 = Melanocortin receptor 3 (Homo sapiens, UniProt P41968); assay type: cell membranes, Membrane; settings: hek293; also: in other assays of this panel Not Active means under 50% inhibition at 10 µM
Chain of Melanocortin receptor 3 (P41968 whole entry): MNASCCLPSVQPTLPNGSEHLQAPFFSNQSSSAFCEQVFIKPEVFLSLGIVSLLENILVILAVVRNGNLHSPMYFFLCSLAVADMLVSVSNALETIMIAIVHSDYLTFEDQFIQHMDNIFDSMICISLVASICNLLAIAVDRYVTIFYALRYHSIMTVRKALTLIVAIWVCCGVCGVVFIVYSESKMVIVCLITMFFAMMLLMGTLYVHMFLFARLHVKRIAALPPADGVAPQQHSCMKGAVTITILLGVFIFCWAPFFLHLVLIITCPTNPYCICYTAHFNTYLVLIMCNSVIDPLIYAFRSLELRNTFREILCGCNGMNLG

Histamine H2 receptor = Histamine H2 receptor (Homo sapiens, UniProt P25021); assay type: cell membranes, CHO-K1, Membrane; settings: cho-k1; also: in other assays of this panel Not Active means under 50% inhibition at 10 µM
Chain of Histamine H2 receptor (P25021 whole entry): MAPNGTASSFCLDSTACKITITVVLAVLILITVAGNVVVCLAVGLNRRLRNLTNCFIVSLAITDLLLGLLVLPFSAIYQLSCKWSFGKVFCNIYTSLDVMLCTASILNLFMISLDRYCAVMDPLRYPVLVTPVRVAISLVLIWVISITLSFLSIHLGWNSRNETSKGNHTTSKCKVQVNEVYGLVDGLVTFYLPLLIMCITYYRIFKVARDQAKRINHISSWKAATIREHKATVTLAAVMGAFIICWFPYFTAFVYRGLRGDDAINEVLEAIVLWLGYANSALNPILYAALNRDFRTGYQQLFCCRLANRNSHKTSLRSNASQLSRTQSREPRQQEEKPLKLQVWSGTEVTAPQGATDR

Cathepsin G = target: T3, Cathepsin G (Homo sapiens, UniProt P08311); assay type: tissue-based; settings: neutrophil;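 also: inhibition of Cathepsin G enzyme activity, tested on an AMC-conjugated peptide substrate; in other assays of this panel Not Active means under 50% inhibition at 10 µM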
T3 sequence (P08311 whole entry): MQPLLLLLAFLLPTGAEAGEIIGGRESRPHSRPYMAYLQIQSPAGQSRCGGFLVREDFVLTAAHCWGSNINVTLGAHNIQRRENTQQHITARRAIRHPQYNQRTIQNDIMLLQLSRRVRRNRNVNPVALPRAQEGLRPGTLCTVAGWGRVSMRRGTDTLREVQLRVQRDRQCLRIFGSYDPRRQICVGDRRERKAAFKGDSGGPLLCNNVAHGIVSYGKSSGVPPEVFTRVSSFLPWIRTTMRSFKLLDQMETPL

Chain of Sodium-dependent noradrenaline transporter (P23975 whole entry): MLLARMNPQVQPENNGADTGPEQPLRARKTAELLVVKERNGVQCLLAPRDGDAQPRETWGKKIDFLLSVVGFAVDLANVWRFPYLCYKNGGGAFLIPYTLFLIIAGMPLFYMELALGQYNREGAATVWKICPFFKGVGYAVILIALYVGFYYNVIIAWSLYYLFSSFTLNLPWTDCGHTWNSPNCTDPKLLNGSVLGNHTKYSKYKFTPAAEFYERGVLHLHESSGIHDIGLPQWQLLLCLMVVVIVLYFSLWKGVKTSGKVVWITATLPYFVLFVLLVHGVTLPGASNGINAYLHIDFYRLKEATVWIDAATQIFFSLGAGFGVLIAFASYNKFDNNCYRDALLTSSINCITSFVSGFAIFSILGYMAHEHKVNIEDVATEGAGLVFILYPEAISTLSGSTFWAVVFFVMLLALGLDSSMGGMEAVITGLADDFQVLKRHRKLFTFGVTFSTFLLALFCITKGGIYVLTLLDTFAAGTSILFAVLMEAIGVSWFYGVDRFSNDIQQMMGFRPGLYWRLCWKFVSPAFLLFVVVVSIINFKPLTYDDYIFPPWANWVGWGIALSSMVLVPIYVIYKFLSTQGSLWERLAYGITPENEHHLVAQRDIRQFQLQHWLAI

Row | Molecule | IC50 [1] | IC50 ([2]; cho-k1) | IC50 (Substance-K receptor) | IC50 [3] | Ki [3] | IC50 (Melanocortin receptor 3) | IC50 (Histamine H2 receptor) | IC50 (Cathepsin G) | Ki [1] | Ki ([2]; cho-k1) | Ki (Substance-K receptor) | Ki (Melanocortin receptor 3) | Ki (Histamine H2 receptor) | Ki (Cathepsin G) | IC50 ([2]; read-out: IC50) [nM] | Ki ([2]; read-out: Ki) [nM]
1 | C[C@H](C(=O)O)c1cccc(C(=O)c2ccccc2)c1 [DEXKETOPROFEN] | Not Active | Not Active | Not Active | Not Active | Not Active | Not Active | Not Active | Not Active | – | – | – | – | – | – | – | –
2 | Cc1cn[nH]c1 [FOMEPIZOLE] | Not Active | Not Active | Not Active | Not Active | Not Active | Not Active | Not Active | Not Active | – | – | – | – | – | – | – | –
3 | O=c1cc(-c2ccccc2)oc2ccc3ccccc3c12 [BETA-NAPHTHOFLAVONE] | Not Active | Not Active | Not Active | Not Active | Not Active | Not Active | Not Active | Not Active | – | – | – | – | – | – | – | –
4 | Cc1c(N(C)CS(=O)(=O)[O-])c(=O)n(-c2ccccc2)n1C.[Na+] [DIPYRONE SODIUM] | Not Active | Not Active | Not Active | Not Active | Not Active | Not Active | Not Active | Not Active | – | – | – | – | – | – | – | –
5 | CN1C(=O)CN=C(c2ccccc2)c2cc(Cl)ccc21 [DIAZEPAM] | Not Active | Not Active | Not Active | Not Active | Not Active | Not Active | Not Active | Not Active | – | – | – | – | – | – | – | –
6 | CO[C@H]1[C@@H](O)[C@H](N)[C@@H](O[C@H]2O[C@H]([C@H](C)N)CC[C@H]2N)[C@H](O)[C@@H]1N(C)C(=O)CN [ASTROMICIN] | Not Active | Not Active | Not Active | Not Active | Not Active | Not Active | Not Active | Not Active | – | – | – | – | – | – | – | –
7 | CCn1cc(C(=O)O)c(=O)c2cc(F)c(N3CCNCC3)nc21 [ENOXACIN] | Not Active | Not Active | Not Active | Not Active | Not Active | Not Active | Not Active | Not Active | – | – | – | – | – | – | – | –
8 | CCC(=O)O[C@H]1[C@H](O[C@@H]2[C@@H](C)[C@H](O[C@H]3C[C@@](C)(OC)[C@@H](O)[C@H](C)O3)[C@@H](C)C(=O)O[C@H](CC)[C@@](C)(O)[C@H](O)[C@@H](C)C(=O)[C@H](C)C[C@@]2(C)O)O[C@H](C)C[C@@H]1N(C)C [ERYTHROMYCIN PROPIONATE] | Not Active | Not Active | Not Active | Not Active | Not Active | Not Active | Not Active | Not Active | – | – | – | – | – | – | – | –
9 | COBALT(II) ACETYLACETONATE | Not Active | Not Active | Not Active | Not Active | Not Active | Not Active | Not Active | Not Active | Not Active | Not Active | Not Active | Not Active | Not Active | Not Active | – | –
10 | N[C@@H](Cc1ccc(F)cc1)C(=O)O | Not Active | Not Active | Not Active | Not Active | Not Active | Not Active | Not Active | Not Active | – | – | – | – | – | – | – | –
11 | O=C(O)Cc1ccc(-c2ccccc2)cc1 [FELBINAC] | Not Active | Not Active | Not Active | Not Active | Not Active | Not Active | Not Active | Not Active | – | – | – | – | – | – | – | –
12 | NC[C@H]1O[C@H](O[C@H]2[C@H](O)[C@@H](O[C@H]3O[C@H](CO)[C@@H](O)[C@H](N)[C@H]3O)[C@H](N)C[C@@H]2N)[C@H](O)[C@@H](O)[C@@H]1O [KANAMYCIN] | Not Active | Not Active | Not Active | Not Active | Not Active | Not Active | Not Active | Not Active | – | – | – | – | – | – | – | –
13 | N=C(N)N/N=C/c1c(Cl)cccc1Cl [GUANABENZ] | Not Active | – | Not Active | Not Active | Not Active | Not Active | Not Active | Not Active | – | – | – | – | – | – | 204 | 107
14 | Nc1nc(N)nc(NC2CC2)n1 [CYROMAZINE] | Not Active | Not Active | Not Active | Not Active | Not Active | Not Active | Not Active | Not Active | – | – | – | – | – | – | – | –
15 | OCCO [ETHYLENE GLYCOL] | Not Active | Not Active | Not Active | Not Active | Not Active | Not Active | Not Active | Not Active | – | – | – | – | – | – | – | –
16 | CCN[C@@H](C)Cc1cccc(C(F)(F)F)c1 [DEXFENFLURAMINE] | Not Active | Not Active | Not Active | Not Active | Not Active | Not Active | Not Active | Not Active | – | – | – | – | – | – | – | –
17 | C[C@]12C/C(=C/O)C(=O)C[C@@H]1CC[C@@H]1[C@@H]2CC[C@@]2(C)[C@H]1CC[C@]2(C)O [OXYMETHOLONE] | Not Active | Not Active | Not Active | Not Active | Not Active | Not Active | Not Active | Not Active | – | – | – | – | – | – | – | –
18 | C=C(CC)C(=O)c1ccc(OCC(=O)O)c(Cl)c1Cl [ETHACRYNIC ACID] | Not Active | Not Active | Not Active | Not Active | Not Active | Not Active | Not Active | Not Active | – | – | – | – | – | – | – | –
19 | CCOC(=O)[C@H](CCc1ccccc1)N[C@@H](C)C(=O)N1Cc2ccccc2C[C@H]1C(=O)O | Not Active | Not Active | Not Active | Not Active | Not Active | Not Active | Not Active | Not Active | – | – | – | – | – | – | – | –
20 | CCc1oc2ccccc2c1C(=O)c1cc(Br)c(O)c(Br)c1 [BENZBROMARONE] | Not Active | Not Active | Not Active | Not Active | Not Active | Not Active | Not Active | Not Active | – | – | – | – | – | – | – | –
21 | CC[C@H]1OC(=O)[C@H](C)[C@@H](O[C@H]2C[C@@](C)(OC)[C@@H](O)[C@H](C)O2)[C@H](C)[C@@H](O[C@@H]2O[C@H](C)C[C@H](N(C)C)[C@H]2O)[C@](C)(OC)C[C@@H](C)C(=O)[C@H](C)[C@@H](O)[C@]1(C)O [CLARITHROMYCIN] | Not Active | Not Active | Not Active | Not Active | Not Active | Not Active | Not Active | Not Active | – | – | – | – | – | – | – | –
22 | CC(=O)O[C@]1(C(C)=O)CC[C@H]2[C@@H]3C=C(C)C4=CC(=O)CC[C@]4(C)[C@H]3CC[C@@]21C [MEGESTROL ACETATE] | Not Active | Not Active | Not Active | Not Active | Not Active | Not Active | Not Active | Not Active | – | – | – | – | – | – | – | –
23 | CC(C)C[C@H]1C(=O)N2CCC[C@H]2[C@]2(O)O[C@](NC(=O)[C@@H]3C=C4c5cccc6[nH]c(Br)c(c56)C[C@H]4N(C)C3)(C(C)C)C(=O)N12 [BROMOCRIPTINE] | Not Active | – | Not Active | Not Active | Not Active | Not Active | Not Active | Not Active | – | – | – | – | – | – | 532 | 278
24 | CC(=O)O[C@]1(C(C)=O)CC[C@H]2[C@@H]3C=C(Cl)C4=CC(=O)[C@@H]5C[C@@H]5[C@]4(C)[C@H]3CC[C@@]21C [CYPROTERONE ACETATE] | Not Active | Not Active | Not Active | Not Active | Not Active | Not Active | Not Active | Not Active | – | – | – | – | – | – | – | –
